The text below walks through data of US5521197A, “3-<1-alkylenearyl>-4-<1,2,3,6-tetrahydropyridinyl>-and 3-<1-alkylenearyl>-4-piperidinyl-1h-indoles: new 5-HT1F agonists” (Eli Lilly and Company, priority 1994, dated 1996).

One may read the Ki as the dissociation constant of the complex between target and ligand, obtained from inhibition or displacement.

Molecules are shown by their SMILES. Where a name gives a salt, the structure may show the parent alone.

One assay addresses T1, 5-HT1F receptor (Homo sapiens, UniProt P30939).
T1 sequence (P30939 1-366): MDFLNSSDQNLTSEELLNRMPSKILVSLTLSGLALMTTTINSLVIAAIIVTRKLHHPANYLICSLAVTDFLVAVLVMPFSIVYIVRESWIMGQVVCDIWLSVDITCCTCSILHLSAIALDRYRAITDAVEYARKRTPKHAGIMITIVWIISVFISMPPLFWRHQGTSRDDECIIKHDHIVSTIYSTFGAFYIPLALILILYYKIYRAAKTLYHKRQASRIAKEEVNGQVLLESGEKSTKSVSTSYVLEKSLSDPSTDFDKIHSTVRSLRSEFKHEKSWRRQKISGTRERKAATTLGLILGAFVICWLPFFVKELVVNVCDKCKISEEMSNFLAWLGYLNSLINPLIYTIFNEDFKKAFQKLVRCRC
The assay can be described thus: Radioligand ([3H]5-HT) binding to the 5-HT1F receptor subtype. Set-up: expressed in transfected cells; host or cells: Ltk- cells (membranes).
Details: not given
Here is the method: The cells were washed twice with phosphate-buffered saline, scraped from the culture dishes into 5 mL of ice-cold phosphate-buffered saline, and centrifuged at 200×g for 5 minutes at 4° C. The pellet was resuspended in 2.5 mL of ice-cold Tris buffer (20 mM Tris HCl, pH=7.4 at 23° C., 5 mM EDTA) and homogenized with a Wheaton tissue grinder. The lysate was subsequently centrifuged at 200×g for 5 minutes at 4° C. to pellet large fragments which were discarded. The supernatant was collected and centrifuged at 40,000×g for 20 minutes at 4° C. The pellet resulting from this centrifugation was washed once in ice-cold Tris wash buffer and resuspended in a final buffer containing 50 mM Tris HCl and 0.5 mM EDTA, pH=7.4 at 23° C. Membrane preparations were kept on ice and utilized within two hours for the radioligand binding assays.
Saturation studies were conducted using [^3 H]5-HT at 12 different concentrations ranging from 0.5 nM to 100 nM. […] The binding profile of drugs in competition experiments was accomplished using 10-12 concentrations of compound. […] Nonspecific binding was defined in the presence of 10 μM 5-HT. Binding was initiated by the addition of 50 μL membrane homogenates (10-20 μg). The reaction was terminated by rapid filtration through presoaked (0.5% polyethyleneimine) filters using 48R Cell Brandel Harvester (Gaithersburg, Md.). Subsequently, filters were washed for 5 seconds with ice cold buffer (50 mM Tris HCl, pH=7.4 at 4° C.), dried and placed into vials containing 2.5 mL Readi-Safe (Beckman, Fullerton, Calif.) and radioactivity was measured using a Beckman LS 5000TA liquid scintillation counter. […] Binding data was analyzed by computer-assisted nonlinear regression analysis (Accufit and Accucomp, Lunden Software, Chagrin Falls, Ohio). […] All experiments were performed in triplicate. […]
`Cc1ccc2[nH]cc(C3=CCN(CCc4ccccc4)CC3)c2c1` [Example 23, 5-methyl-3-<1-<2-phenylethyl>-4-<1,2,3,6-tetrahydropyridinyl>>-1H-indolemaleate] had a Ki of 0.0283 µM.

Turning to `Clc1ccc2[nH]cc(C3=CCN(CCc4ccccc4)CC3)c2c1` [Example 20, 5-chloro-3-<1-<2-phenylethyl>-4-<1,2,3,6-tetrahydropyridinyl>>-1H-indolehydrochloride], the affinity, expressed as Ki, was 0.0388 µM.

Consider `Fc1ccc2[nH]cc(C3=CCN(CCc4ccccc4)CC3)c2c1` [Example 18, 5-fluoro-3-<1-<2-phenylethyl>-4-<1,2,3,6-tetrahydropyridinyl>>-1H-indolehydrochloride], for which the Ki worked out at 0.0483 µM. Consider `C1=C(c2c[nH]c3ccccc23)CCN(CCc2ccccc2)C1` [Example 19, 3-<1-<2-phenylethyl>-4-<1,2,3,6-tetrahydropyridinyl>>-1H-indole], for which affinity was put at a Ki of 0.0811 µM. In turn, `COc1ccc2[nH]cc(C3=CCN(CCc4ccccc4)CC3)c2c1` [Example 21, 5-methoxy-3-<1-<2-phenylethyl>-4-<1,2,3,6-tetrahydropyridinyl>>-1H-indolehydrochloride] showed a Ki of 0.0339 µM.

Still in this assay, the particulars now being: Table I, [3H]5-HT displacement, transfected Ltk- cell membranes, 37° C.; read-out: 5-HT1F BINDING Ki.
Turning to `COc1ccc2[nH]cc(C3CCN(CCc4ccccc4)CC3)c2c1` [Example 28, 5-methoxy-3-<1-<2-phenylethyl>-4-piperidinyl>-1H-indole hydrochloride], the Ki is 0.0392 µM. Same read-out and setting: next, `c1ccc(SCCN2CCC(c3c[nH]c4ccccc34)CC2)cc1` [Example 42, 3-<1-<2-<phenylthio>ethyl>-4-piperidinyl>-1H-indole]: 0.342 µM; `Cc1ccc(CCN2CCC(c3c[nH]c4ccccc34)CC2)cc1` [Example 10, 3-<1-<2-<4-methylphenyl>ethyl>-4-piperidinyl>-1H-indole hydrochloride]: 0.0676 µM; `Clc1ccc2[nH]cc(C3CCN(CCc4ccccc4)CC3)c2c1` [Example 27, 5-chloro-3-<1-<2-phenylethyl>-4-piperidinyl>-1H-indole hydrochloride]: 0.0455 µM. Regarding `Fc1cccc(CCN2CCC(c3c[nH]c4ccccc34)CC2)c1` [Example 2, 3-<1-<2-<3-fluorophenyl>ethyl>-4-piperidinyl>-1H-indole hydrochloride], the Ki was 0.0555 µM. Still for that read-out and setting: next, `Cc1cccc(CCN2CCC(c3c[nH]c4ccccc34)CC2)c1` [Example 9, 3-<1-<2-<3-methylphenyl>ethyl>-4-piperidinyl>-1H-indole hydrochloride]: 0.0297 µM; `C1=C(c2c[nH]c3ccccc23)CCN(CCCOc2ccccc2)C1` [Example 38, 3-<1-<3-phenoxypropyl>-4-<1,2,3,6-tetrahydropyridinyl>>-1H-indolehydrochloride]: 0.136 µM. Same read-out and setting: the figure for `Clc1cccc(CCN2CCC(c3c[nH]c4ccccc34)CC2)c1` [Example 6, 3-<1-<2-<3-chlorophenyl>ethyl>-4-piperidinyl>-1H-indole hydrochloride] is 0.0117 µM. Still for that read-out and setting: next, `c1ccc2c(CCN3CCC(c4c[nH]c5ccccc45)CC3)cccc2c1` [Example 35, 3-<1-<2-<1-naphthyl>ethyl>-4-piperidinyl>-1H-indole]: 0.0767 µM; `c1ccc(OCCN2CCC(c3c[nH]c4ccccc34)CC2)cc1` [Example 40, 3-<1-<2-phenoxyethyl>-4-piperidinyl>-1H-indole hydrochloride]: 0.191 µM. Consider `Cc1ccc2[nH]cc(C3CCN(CCc4ccccc4)CC3)c2c1` [Example 30, 5-methyl-3-<1-<2-phenylethyl>-4-piperidinyl>-1H -indole hydrochloride], for which the Ki came to 0.0378 µM.

As for `Clc1ccc(CCN2CCC(c3c[nH]c4ccccc34)CC2)cc1` [Example 32, 3-<1-<2-<4-chlorophenyl>ethyl>-4-piperidinyl>-1H-indole hydrochloride], the Ki is 0.0521 µM. Same read-out and setting: the figure for `NC(=O)c1ccc2[nH]cc(C3CCN(CCc4ccccc4)CC3)c2c1` [Example 31, 5-carboxamido-3-<1-<2-phenylethyl>-4-piperidinyl>-1H-indole hydrochloride] is 0.0369 µM. On the same count and under the same terms, next, `COc1cccc(CCN2CCC(c3c[nH]c4ccccc34)CC2)c1` [Example 12, 3-<1-<2-<3-methoxyphenyl>ethyl>-4-piperidinyl>-1H-indole hydrochloride]: 0.0211 µM; `c1ccc(CCCCN2CCC(c3c[nH]c4ccccc34)CC2)cc1` [Example 46, 3-<1-<4-phenylbutyl>-4-piperidinyl>-1H-indole hydrochloride]: 0.0204 µM. For `COc1ccccc1CCN1CCC(c2c[nH]c3ccccc23)CC1` [Example 11, 3-<1-<2-<2-methoxyphenyl>ethyl>-4-piperidinyl>-1H -indole hydrochloride], the Ki was 0.034 µM. Take `c1ccc(OCCCN2CCC(c3c[nH]c4ccccc34)CC2)cc1` [Example 41, 3-<1-<3-phenoxypropyl>-4-piperidinyl>-1H-indole hydrochloride]: the Ki amounted to 0.0914 µM.

On to `C1=C(c2c[nH]c3ccccc23)CCN(Cc2ccccc2)C1` [Example 44, 3-<1-benzyl-4-<1,2,3,6-tetrahydropyridinyl>>-1H-indole hydrochloride], for which the Ki came to 0.396 µM. The same measure, in the same setting: the figure for `c1ccc(COc2ccc(CCN3CCC(c4c[nH]c5ccccc45)CC3)cc2)cc1` [Example 15, 3-<1-<2-<4-benzyloxyphenyl>ethyl>-4-piperidinyl>-1H-indole] is 0.844 µM; for `C1=C(c2c[nH]c3ccccc23)CCN(CCCCc2ccccc2)C1` [Example 43, 3-<1-<4-phenylbutyl>-4-<1,2,3,6-tetrahydropyridinyl>>-1H-indolehydrochloride] it is 0.547 µM; for `c1ccc(CCN2CCC(c3c[nH]c4ccc(OCc5ccccc5)cc34)CC2)cc1` [Example 29, 5-benzyloxy-3-<1-<2-phenylethyl>-4-piperidinyl>-1H-indole hydrochloride] it is 0.0172 µM.

For the molecule `Oc1ccc2[nH]cc(C3CCN(CCc4ccccc4)CC3)c2c1` [Example 36, 5-hydroxy-3-<1-<2-phenylethyl>-4-piperidinyl>-1H-indole hydrochloride], the inhibitory constant (Ki) came out at 0.0025 µM.

`Fc1ccc2[nH]cc(C3CCN(CCc4ccccc4)CC3)c2c1` [Example 25, 5-fluoro-3-<1-<2-phenylethyl>-4-piperidinyl>-1H-indole hydrochloride]: the Ki was determined as 0.0296 µM. On the same count and under the same terms, the figure for `Clc1ccccc1CCN1CCC(c2c[nH]c3ccccc23)CC1` [Example 5, 3-<1-<2-<2-chlorophenyl>ethyl>-4-piperidinyl>-1H-indole hydrochloride] is 0.0352 µM; for `COc1ccc(CCN2CCC(c3c[nH]c4ccccc34)CC2)cc1` [Example 33, 3-<1-<2-<4-methoxyphenyl>ethyl>-4-piperidinyl>-1H-indole hydrochloride] it is 0.127 µM. Still for that read-out and setting: next, `Cc1ccccc1CCN1CCC(c2c[nH]c3ccccc23)CC1` [Example 8, 3-<1-<2-<2-methylphenyl>ethyl>-4-piperidinyl>-1H-indole hydrochloride]: 0.045 µM.

Still in this assay, the particulars now being: Table I, at 1000 nM; read-out: 5-HT1F BINDING, % displacement at 1000 nM.
Take `c1ccc(CCCN2CCC(c3c[nH]c4ccccc34)CC2)cc1` [Example 48, 3-<1-<3-phenylpropyl>-4-piperidinyl>-1H-indole hydrochloride]: the inhibition at 1 µM stood at 50%.

Staying with this assay, now noted: read-out: 5-HT1F BINDING, % displacement at 1000 nM.
For the molecule `C1=C(c2c[nH]c3ccccc23)CCN(CCSc2ccccc2)C1` [Example 39, 3-<1-<2-<phenylthio>ethyl>-4-<1,2,3,6-tetrahydropyridinyl>>-1H-indole], the inhibition at 1 µM was determined as 34%.

In the case of `C1=C(c2c[nH]c3ccccc23)CCN(CCc2cccc3ccccc23)C1` [Example 34, 3-<1-<2-<1-naphthyl>ethyl>-4-<1,2,3,6-tetrahydropyridinyl>>-1H-indole], the inhibition at 1 µM is 38%. Same read-out and setting: next, `C1=C(c2c[nH]c3ccccc23)CCN(CCCc2ccccc2)C1` [Example 47, 3-<1-<3-phenylpropyl>-4-<1,2,3,6-tetrahydropyridinyl>>-1H-indolehydrochloride]: 62%; `C1=C(c2c[nH]c3ccc(OCc4ccccc4)cc23)CCN(CCc2ccccc2)C1` [Example 22, 5-benzyloxy-3-<1-<2-phenylethyl>-4-<1,2,3,6-tetrahydropyridinyl>>-1H-indolehydrochloride]: 62%.
